Values quoted from earlier work, collected in patent US9579404B2, “Lanthanoid complex capsule and particle contrast agents, methods of making and using thereof” (New York University, priority 2011, dated 2017).

Conditions: in H2O at 9.4 T (400 MHz), 25° C.; from Siddiqui et al. 2009

Compound: O=C([O-])CN(CCN(CC(=O)[O-])CC(=O)[O-])CCN(CC(=O)[O-])CC(=O)[O-].[Gd+3] [Gd[DTPA]^2−, gadolinium diethylenetriamine-N,N,N′,N″N″-pentaacetate]
- Relaxivity (r1) per Gd: 4.6^a s^−1mM^−1
